# Source: US8273775B2, “Non-steroidal brassinosteroid mimetic” (priority 2006, dated 2012)
# System: gene expression in Col-0 seedling shoots
# Experiment: Microarray analysis (ATH1 Affymetrix) after BL or abrasin treatment
# Format: in vivo, Arabidopsis
# Settings: 30 min
# Experimental: FIG. 14: Clustering of gene expression profiles by QT-clust analysis. Clusters illustrating the major patterns of the data sets. Points: BIK-30: 30 μM abrasin 30 min; BL-30: 1 μM brassinolide 30 min; DMSO-30: control DMSO 30 min; BIK-120: 30 μM abrasin 120 min; BL-120: 1 μM brassinolide 120 min; DMSO-120: control DMSO 120 min.
# Col-0 seeds were germinated vertically on ½ MS medium for 7 days under 16 h light/8 h dark cycles. The seedlings were overlaid with liquid ½ MS medium containing 1 μM brassinolide (BL, Fuji Chemical Industries, Ltd., Toyama, Japan), 30 μM abrasin (BIK, ChemBridge Corporation) and DMSO and treated for 30 and 120 min. The shoot parts were collected for RNA isolation. All sampling points were performed in three independent experiments. RNA was extracted using RNeasy kit (Qiagene). […] total RNA per array was used to hybridise the ATH1 Affymetrix Arabidopsis arrays according to standard procedure. The overrepresentation analyses were performed using BiNGO software (Maere et al., 2005).
# We performed a microarray analysis using the Arabidopsis whole genome chip (Affymetix) to determine whether abrasin activated the expression of BR-inducible genes at transcriptional level. Wild-type Col-0 seedlings were exposed to 1 μM BL, 30 μM ABRASIN and DMSO (mock-treatment) for two time points (30 min and 120 min) and the shoot parts were collected for RNA isolation. The analysis of the variance of the normalized gene expression data took in account the variability parameters affecting the expression level: type of hormone treatment, duration of treatment and the interaction between these two.
compound,measurement,setting,value
"CC(C)[C@H](C)[C@@H](O)[C@H](O)[C@@H](C)[C@H]1CC[C@H]2[C@@H]3COC(=O)[C@H]4C[C@H](O)[C@H](O)C[C@]4(C)[C@H]3CC[C@]12C [BL, brassinolide, reference compound]",Fold-change AT4G16563 aspartyl protease family protein,,1.44
same,Fold-change AT4G16670 expressed protein,,0.78
same,Fold-change AT4G16780 homeobox-leucine zipper protein 4 (HAT4)/HD-ZIP protein,,0.62
same,Fold-change AT4G17250 expressed protein,,0.86
same,Fold-change AT4G17460 homeobox-leucine zipper protein 1 (HAT1)/HD-ZIP protein 1,,0.54
same,Fold-change AT4G21510 F-box family protein,,1.47
same,Fold-change AT4G23030 MATE efflux protein-related,,1.37
same,Fold-change AT4G23070 rhomboid family protein,,1.02
same,Fold-change AT4G23810 WRKY family transcription factor,,0.71
same,"Fold-change AT4G24160 hydrolase, alpha/beta fold family protein",,1.13
same,Fold-change AT4G25620 hydroxyproline-rich glycoprotein family protein,,0.87
same,Fold-change AT4G25780 pathogenesis-related protein,,0.74
same,Fold-change AT4G27970 C4-dicarboxylate transporter/malic acid transport family protein,,1.20
same,Fold-change AT4G28240 wound-responsive protein-related,,0.77
same,"Fold-change AT4G28490 leucine-rich repeat transmembrane protein kinase, putative",,1.00
same,Fold-change AT4G28703 expressed protein,,0.85
same,Fold-change AT4G28780 GDSL-motif lipase/hydrolase family protein,,1.25
same,Fold-change AT4G29070 expressed protein,,0.90
same,Fold-change AT4G30080 transcriptional factor B3 family protein,,0.94
same,Fold-change AT4G31020 expressed protein,,1.53
same,Fold-change AT4G32280 auxin-responsive AUX/IAA family protein (IAA29),,0.66
same,Fold-change AT4G33050 calmodulin-binding family protein,,0.99
same,Fold-change AT4G33700 CBS domain-containing protein,,0.81
same,Fold-change AT4G34610 homeodomain-containing protein,,0.86
same,Fold-change AT4G36110 auxin-responsive protein,,2.35
same,Fold-change AT4G36780 brassinosteroid signalling positive regulator-related,,0.71
same,Fold-change AT4G37240 expressed protein,,1.23
same,Fold-change AT4G37290 expressed protein,,0.90
same,Fold-change AT4G37590 phototropic-responsive NPH3 family protein,,0.90
same,Fold-change AT4G38840 auxin-responsive protein (SAUR14),,1.26
same,Fold-change AT4G38850 auxin-responsive protein (SAUR-AC1),,1.43
same,Fold-change AT4G38860 auxin-responsive protein (SAUR16),,1.38
same,Fold-change AT4G39400 brassinosteroid insensitive 1 (BRI1),,0.96
same,Fold-change AT5G02020 expressed protein,,0.99
same,Fold-change AT5G05690 cytochrome P450 90A1 (CYP90A1) (CYP90) (CPD),,0.93
same,Fold-change AT5G07690 myb family transcription factor (MYB29),,0.82
same,Fold-change AT5G08130 basic helix-loop-helix (bHLH) family protein (BIM2),,0.79
same,Fold-change AT5G12050 expressed protein,,0.73
same,Fold-change AT5G13180 no apical meristem (NAM) family protein,,1.07
same,Fold-change AT5G13740 sugar transporter family protein,,0.77
same,Fold-change AT5G14730 expressed protein,,0.80
same,Fold-change AT5G16200 50S ribosomal protein-related,,0.70
same,Fold-change AT5G16980 NADP-dependent oxidoreductase,,1.15
same,Fold-change AT5G18750 DNAJ heat shock N-terminal domain-containing protein,,1.03
same,Fold-change AT5G19200 short-chain dehydrogenase/reductase (SDR) family protein,,1.22
same,Fold-change AT5G19340 expressed protein,,0.68
same,Fold-change AT5G24030 C4-dicarboxylate transporter/malic acid transport family protein,,1.43
same,Fold-change AT5G24660 expressed protein,,1.33
same,Fold-change AT5G25240 expressed protein,,1.21
same,Fold-change AT5G25930 leucine-rich repeat family protein,,0.98
same,Fold-change AT5G27350 sugar-porter family protein 1 (SFP1),,1.11
same,Fold-change AT5G27670 histone H2A,,0.86
same,Fold-change AT5G38310 expressed protein,,0.98
same,"Fold-change AT5G38990; AT5G39000 [AT5G38990, protein kinase family protein",,0.94
same,Fold-change AT5G39050 transferase family protein,,1.35
same,Fold-change AT5G39610 no apical meristem (NAM) family protein,,0.65
same,Fold-change AT5G39970 expressed protein,,1.08
same,Fold-change AT5G42830 transferase family protein,,0.87
same,Fold-change AT5G47370 homeobox-leucine zipper protein 2 (HAT2),,0.94
same,Fold-change AT5G48070 putative xyloglucan endotransglycosylase/hydrolase,,1.12
same,Fold-change AT5G48540 33 kDa secretory protein-related,,1.01
same,Fold-change AT5G51550 phosphate-responsive 1 family protein,,0.86
same,"Fold-change AT5G54490 calcium-binding EF-hand protein, putative",,0.37
same,Fold-change AT5G54860 integral membrane transporter family protein,,0.92
same,Fold-change AT5G55970 zinc finger (C3HC4-type RING finger) family protein,,1.03
same,Fold-change AT5G56980 expressed protein,,0.75
same,Fold-change AT5G57190 phosphatidylserine decarboxylase,,1.04
same,Fold-change AT5G57780 expressed protein,,0.41
same,Fold-change AT5G59080 expressed protein,,0.62
same,Fold-change AT5G60200 Dof-type zinc finger domain-containing protein,,0.82
same,Fold-change AT5G60270 lectin protein kinase family protein,,1.03
same,Fold-change AT5G60630 expressed protein,,0.94
same,Fold-change AT5G61600 encodes a member of the ERF (ethylene response factor),,0.46
same,Fold-change AT5G62360 invertase/pectin methylesterase inhibitor family protein,,0.92
same,Fold-change AT5G65310 homeobox-leucine zipper protein 5 (HB-5)/HD-ZIP transcription factor 5,,0.91
same,Fold-change AT5G66420 expressed protein,,1.04
same,Fold-change AT5G66590 allergen V5/Tpx-1-related family protein,,1.21
same,Fold-change AT5G67450 zinc finger (C2H2 type) protein 1 (AZF1),,1.79
same,Fold-change of gene AT4G16140 (proline-rich family protein),"245479_at, Cluster 6",0.83
same,Fold-change of gene AT4G15260 (UDP-glucoronosyl/UDP-glucosyl transferase family protein),"245543_at, Cluster 7",1.01
same,"Fold-change of gene AT5G09440 (phosphate-responsive protein, putative)","245885_at, Cluster 5",0.58
same,Fold-change of gene AT1G77380 (amino acid carrier),"246389_at, Cluster 10",0.94
same,Fold-change of gene AT5G15740 (expressed protein),"246516_at, Cluster 5",0.95
same,Fold-change of gene AT5G65300 (expressed protein),"247177_at, Cluster 5",0.25
same,Fold-change of gene AT5G64890 (expressed protein),"247205_at, Cluster 10",0.97
same,Fold-change of gene AT5G63790 (no apical meristem (NAM) family protein),"247351_at, Cluster 9",0.49
same,Fold-change of gene AT5G62630 (expressed protein),"247444_at, Cluster 7",1.26
same,Fold-change of gene AT5G60850 (Dof-type zinc finger domain-containing protein),"247601_at, Cluster 10",1.09
same,Fold-change of gene AT5G59510 (expressed protein),"247704_at, Cluster 9",0.98
same,Fold-change of gene AT5G58660 (oxidoreductase. 2OG-Fe(II) oxygenase family protein),"247774_at, Cluster 5",1.08
same,Fold-change of gene AT5G54120 (expressed protein),"248190_at, Cluster 5",1.04
same,Fold-change of gene AT5G54130 (calcium-binding EF hand family protein),"248191_at, Cluster 5",1.03
same,Fold-change of gene AT5G52900 (expressed protein),"248282_at, Cluster 6",0.74
same,Fold-change of gene AT5G49100 (expressed protein),"248646_at, Cluster 9",0.70
same,Fold-change of gene AT5G18060 (auxin-responsive protein),"250012_x_at, Cluster 6",0.76
same,Fold-change of gene AT5G09800 (U-box domain-containing protein),"250493_at, Cluster 9",0.80
same,Fold-change of gene AT5G08565 (expressed protein),"250537_at, Cluster 8",1.06
same,Fold-change of gene AT5G03670 (expressed protein),"250907_at, Cluster 5",0.60
same,Fold-change of gene AT5G01740 (expressed protein),"251072_at, Cluster 5",0.53
same,Fold-change of gene AT3G63380 (calcium-transporting ATPase),"251176_at, Cluster 10",0.87
same,Fold-change of gene AT3G60690 (auxin-responsive family protein),"251342_at, Cluster 9",0.87
same,Fold-change of gene AT3G45610 (Dof-type zinc finger domain),"252586_at, Cluster 10",0.90
same,Fold-change of gene AT3G44610 (protein kinase family protein),"252646_at, Cluster 5",1.05
same,Fold-change of gene AT4G34760 (auxin-responsive family protein),"253255_at, Cluster 6",0.81
same,Fold-change of gene AT4G34138 (UDP-glucoronosyl/UDP-glucosyl transferase family protein),"253281_at, Cluster 7",1.17
same,Fold-change of gene AT4G31910 (transferase family protein),"253483_at, Cluster 5",1.15
same,Fold-change of gene AT4G30410 (expressed protein),"253617_at, Cluster 5",0.97
same,Fold-change of gene AT4G30450 (glycine-rich protein),"253629_at, Cluster 5",0.88
same,Fold-change of gene AT4G26200 (1-aminocyclopropane-1-carboxylate synthase),"253999_at, Cluster 9",0.29
same,Fold-change of gene AT4G03400 (auxin-responsive GH3 family protein),"255403_at, Cluster 6",0.59
same,Fold-change of gene AT4G02700 (sulfate transporter),"255443_at, Cluster 7",1.69
same,Fold-change of gene AT1G22190 (AP2 domain-containing transcription factor),"255926_at, Cluster 8",0.83
same,Fold-change of gene AT1G66140 (zinc finger (C2H2 type) family protein),"256528_at, Cluster 6",0.72
same,Fold-change of gene AT3G25655 (expressed protein),"256762_at, Cluster 8",0.98
same,"Fold-change of gene AT3G21420 (oxidoreductase, 2OG-Fe(II) oxygenase family protein)","256818_at, Cluster 7",1.11
same,Fold-change of gene AT3G18280 (protease inhibitor/seed storage/lipid transfer protein),"257066_at, Cluster 5",1.06
same,Fold-change of gene AT1G29440 (auxin-responsive family protein),"257506_at, Cluster 6",0.69
same,"Fold-change of gene AT3G29200 (chorismate mutase, chloroplast (CM1))","257746_at, Cluster 5",0.89
same,Fold-change of gene AT1G13260 (DNA-binding protein RAV1 (RAV1)),"259364_at, Cluster 8",0.61
same,Fold-change of gene AT1G29500 (auxin-responsive protein),"259773_at, Cluster 6",0.79
same,Fold-change of gene AT1G29510 (auxin-responsive protein),"259783_at, Cluster 6",0.77
same,Fold-change of gene AT1G29450 (auxin-responsive protein),"259784_at, Cluster 6",0.75
same,Fold-change of gene AT1G29460 (auxin-responsive protein),"259787_at, Cluster 6",0.75
same,"Fold-change of gene AT1G76690; AT1G76680 ([AT1G76690, 12-oxophytodienoate reductase (OPR2))","259875_s_at, Cluster 7",0.85
same,Fold-change of gene AT1G76620 (expressed protein),"259985_at, Cluster 8",0.94
same,Fold-change of gene AT1G63720 (expressed protein),"260243_at, Cluster 10",0.74
same,Fold-change of gene AT1G48100 (glycoside hydrolase family 28 protein),"260727_at, Cluster 8",1.06
same,Fold-change of gene AT1G12200 (flavin-containing monooxygenase family protein),"261023_at, Cluster 7",1.11
same,Fold-change of gene AT1G12845 (expressed protein),"261203_at, Cluster 6",0.98
same,Fold-change of gene AT1G15550 (gibberellin 3-beta-dioxygenase),"261768_at, Cluster 6",0.77
same,Fold-change of gene AT1G80840 (WRKY family transcription factor),"261892_at, Cluster 9",0.27
same,Fold-change of gene AT1G80080 (leucine-rich repeat family protein),"262040_at, Cluster 6",0.77
same,Fold-change of gene AT1G80130 (expressed protein),"262050_at, Cluster 8",1.04
same,Fold-change of gene AT1G21680 (expressed protein),"262505_at, Cluster 10",1.12
same,Fold-change of gene AT1G34245 (expressed protein),"262543_at, Cluster 6",1.14
same,Fold-change of gene AT1G78460 (SOUL heme-binding family protein),"263126_at, Cluster 7",0.88
same,"Fold-change of gene AT1G78820; AT1G78830 ([AT1G78820, curculin-like (mannose-binding) lectin family protein)","264279_s_at, Cluster 7",0.88
